Consider one compound from US7842671B1, “Peptidomimetic inhibitors of STAT activity and uses thereof” (University of South Florida, priority 2003, dated 2010).

For one experiment, the target named is Stat5:Stat5. The experiment is described as follows: EMSA of Stat5:Stat5 DNA-binding in nuclear extracts. In kind it is biochemical, mouse. The note with it: nuclear extracts pre-incubated 30 min, mean and SD of at least 3 assays, read-out: IC50 values against STAT Dimers, Stat5:Stat5. The protocol:
(§1) Nuclear extract preparation and gel shift assays. Nuclear extracts were prepared from cell lines and used for electrophoretic mobility shift assay (EMSA) as previously described (Garcia, R. et al. (1997); Yu, C. L. et al. (1995); Turkson, J. et al. (1998)). In some cases, cells were pre-treated with peptidomimetics for the indicated times (12-48 h) prior to harvesting for nuclear extract preparation. In other studies, nuclear extracts were pre-incubated with peptidomimetics for 30 min at room temperature prior to incubation with radiolabeled probe. The ^32P-radiolabeled oligonucleotide probes used are hSIE (high affinity sis-inducible element, m67 variant, 5′-[…]-3′) (SEQ ID NO. 3) that binds both Stat1 and Stat3 (Garcia, R. et al. (1997); Wagner B. J. et al. (1990)) and MGFe (mammary gland factor element from the bovine β-casein gene promoter, 5′-[…]-3′) (SEQ ID NO. 4) that binds Stat1 and Stat5 (Gouilleux, F. et al. (1995); Seidel, H. M. et al. (1995)).
Peptidomimetics of the invention can be prepared by replacing prolyl or alanyl residue at the peptide bond that is N-terminal to the phosphotyrosine (Y*) of a peptide such as PY*L or AY*L with an organic substituent such as an optionally substituted aryl or heteroaryl group. The activities of STATs were measured in nuclear extracts (prepared from epidermal growth factor (EGF)-stimulated fibroblasts) as DNA-bound protein complexes by electrophoretic mobility shift assay (EMSA). STAT-DNA complexes detected include Stat3:Stat3 homodimers (upper band), Stat1:Stat3 heterodimers (intermediate band) and Stat1:Stat1 homodimers (lower band) (FIG. 1A) when a ^32P-labeled hSIE oligonucleotide probe is used, or Stat5:Stat5 (upper band) and Stat1:Stat1 dimers (lower band) (FIG. 1B) when ^32P-labeled MGFe is used as a probe.
(In general: Mobility shift assays separate free from complexed probe on a gel.)

Experiment [1] concerns Stat1:Stat1 and Stat3:Stat3 dimers. The experiment is described as follows: Dissociation-reassociation analysis of pooled Sf-9 lysates by EMSA. In kind it is biochemical. The note with it: 30 min pre-treatment, 30-300 μM PY*LKTK or 3-1000 μM ISS 610, hSIE probe. How it is done:
(§2) Cytosolic extract preparation and luciferase assays. Cytosolic extract preparation from fibroblasts and luciferase assays were previously described (Turkson, J. et al. (1998); Turkson, J. et al. (1999)). Briefly, after two washes with PBS and equilibration for 5 min with 0.5 ml PBS-0.5 mM EDTA, cells were scraped off the dishes and the cell pellet was obtained by centrifugation (4,500×g, 2 min, 4° C.). Cells were resuspended in 0.4 ml of low-salt HEPES buffer (10 mM HEPES (pH 7.8), 10 mM KCl, 0.1 mM EGTA, 0.1 mM EDTA, 1 mM phenylmethylsulfonyl fluoride, and 1 mM dithiothreitol) for 15 min, lysed by the addition of 20 μl of 10% Nonidet P-40 (NP-40), and centrifuged (10,000×g, 30 s, 4° C.) to obtain the cytosolic supernatant, which was used for luciferase assays (Promega) measured with a luminometer. Cytosolic lysates containing activated Stat3 or Stat1 that were used for dissociation-reassociation analysis were prepared from baculovirus-infected Sf-9 insect cells as previously described (Turkson, J. et al. (2001); Zhang, Y. et al. (2000)). Briefly, cultured dishes of Sf-9 cells were washed twice with ice-cold 1×PBS and then PBS containing 1 mM sodium orthovanadate.

Experiment [2] has as its system Stat3-dependent luciferase reporter, pLucTKS3. In kind it is cell-based. The note with it: 1 mM, Src-transformed mouse cells.
Text: (§3) Plasmids. The Stat3 reporter, pLucTKS3, driving expression of the firefly luciferase gene and the Stat3-independent plasmid, pRLSRE, containing two copies of the serum response element (SRE) from the c-fos promoter (Turkson, J. et al. (1998); Zhang, Y. et al. (2000)) that drives renilla luciferase gene (Promega; Madison, Wis.) expression, have been previously described (Turkson, J. et al. (2001); Turkson, J. et al. (1999)).
as §2, with “Cytosolic lysates containing activated Stat3 or Stat1 that were used for dissociation-reassociation analysis were prepared from baculovirus-infected Sf-9 insect cells as previously described (Turkson, J. et al. (2001); Zhang, Y. et al. (2000)). Briefly, cultured dishes of Sf-9 cells were washed twice with ice-cold 1×PBS and then PBS containing 1 mM sodium orthovanadate.” left out

The test system of experiment [3] is Stat3-independent luciferase reporter, pRLSRE. In kind it is cell-based. The note with it: 1 mM, Src-transformed mouse cells.
Text: as §3
as §2, with “Cytosolic lysates containing activated Stat3 or Stat1 that were used for dissociation-reassociation analysis were prepared from baculovirus-infected Sf-9 insect cells as previously described (Turkson, J. et al. (2001); Zhang, Y. et al. (2000)). Briefly, cultured dishes of Sf-9 cells were washed twice with ice-cold 1×PBS and then PBS containing 1 mM sodium orthovanadate.” left out

In experiment [4] the target is T1, Stat3 (Homo sapiens, UniProt P40763).
T1 construct: endogenous in cells; host or cells: A549, MDA-MB-231, MDA-MB-435, MDA-MB-468
T1 sequence (P40763 whole entry): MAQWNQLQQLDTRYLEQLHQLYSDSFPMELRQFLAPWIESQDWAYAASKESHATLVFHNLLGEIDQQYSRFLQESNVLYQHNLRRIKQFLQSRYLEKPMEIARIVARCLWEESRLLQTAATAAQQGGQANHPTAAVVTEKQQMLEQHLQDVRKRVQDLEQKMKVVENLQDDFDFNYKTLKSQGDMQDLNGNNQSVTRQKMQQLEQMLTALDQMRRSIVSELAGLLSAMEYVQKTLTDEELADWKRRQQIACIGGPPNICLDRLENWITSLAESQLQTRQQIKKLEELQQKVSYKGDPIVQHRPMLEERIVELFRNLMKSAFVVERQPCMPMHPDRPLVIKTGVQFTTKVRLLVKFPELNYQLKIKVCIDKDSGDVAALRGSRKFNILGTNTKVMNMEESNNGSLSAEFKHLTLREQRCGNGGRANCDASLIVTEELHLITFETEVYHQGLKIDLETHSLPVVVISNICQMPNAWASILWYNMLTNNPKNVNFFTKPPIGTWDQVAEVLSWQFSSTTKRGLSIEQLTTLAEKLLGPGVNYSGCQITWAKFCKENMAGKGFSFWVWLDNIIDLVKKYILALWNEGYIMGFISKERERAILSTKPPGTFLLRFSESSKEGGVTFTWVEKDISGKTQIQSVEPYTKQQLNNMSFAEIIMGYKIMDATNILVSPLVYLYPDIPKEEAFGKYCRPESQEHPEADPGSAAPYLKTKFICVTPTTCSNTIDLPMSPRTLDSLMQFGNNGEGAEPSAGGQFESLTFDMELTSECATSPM
In kind it is cell-based. The protocol: as §1

A further experiment deals with NIH3T3/v-Src. The experiment is described as follows: Soft-agar growth of v-Src-transformed fibroblasts. In kind it is cell-based, mouse. The note with it: 1 mM every 2-3 days. The protocol:
Cell proliferation, soft-agar growth and Apo-BrdU labeling studies. Proliferating fibroblasts and human tumor cells were counted by phase-contrast microscopy for viable cells (using tyrpan blue exclusion). Colony formation assays in six-well dishes and quantification of colonies by iodonitrotetrazolium violet have been previously described (Turkson, J. et al. (1999)). Treatment of cells with inhibitors was initiated 1 day after seeding cells by adding 75 μl of medium with or without inhibitor, and repeated every two to three days. Apoptosis was measured by Apo-BrdU labeling and following the supplier's (PharMingen; San Diego, Calif.) instructions.
Previous studies with PY*LKTK-MTS (SEQ ID NO. 1) (Turkson, J. et al., 2001)) confirmed that inhibition of constitutive Stat3 activation blocks Src transformation (Turkson, J. et al. (1998); Turkson, J. et al., (1999); Bromberg, J. R. et al. (1998)).

Experiment [5] addresses T2, Stat3 (Mus musculus, UniProt P42227). In kind it is cell-based. The arrangement: nuclear extracts prepared from v-Src-transformed NIH3T3/v-Src; endogenous in cells; host or cells: NIH3T3/v-Src. The protocol:
as §1

In experiment [6] the target is T2, Stat3. The experiment can be described thus: EMSA of Stat3 DNA-binding activity in nuclear extracts (hSIE probe). In kind it is biochemical. The arrangement: nuclear extracts (prepared from epidermal growth factor (EGF)-stimulated fibroblasts); endogenous in cells; host or cells: NIH3T3 fibroblasts stimulated with EGF. The note with it: EMSA. How it is done:
as §1
Peptidomimetics of the invention can be prepared by replacing prolyl or alanyl residue at the peptide bond that is N-terminal to the phosphotyrosine (Y*) of a peptide such as PY*L or AY*L with an organic substituent such as an optionally substituted aryl or heteroaryl group. The activities of STATs were measured in nuclear extracts (prepared from epidermal growth factor (EGF)-stimulated fibroblasts) as DNA-bound protein complexes by electrophoretic mobility shift assay (EMSA).
From densitometric analysis of band intensities, the IC50 values (concentration of peptidomimetic at which DNA-binding activity is reduced by 50%), which are reported in Table 3, were determined.

T2 sequence (P42227 whole entry): as the sequence (P40763 whole entry) above, with E760D counted along it

By IC50 is commonly meant the concentration at which inhibition is half-maximal. In the case of `CC(C)CC(NC(=O)C(Cc1ccc(OP(=O)(O)O)cc1)NC(=O)c1ccc(C#N)cc1)C(=O)O` (stereo not shown) [ISS 610], the IC50 on Stat5:Stat5 was found to be 285 µM. In addition, in experiment [1], the “effect on STAT dimers in mixed Stat1:Stat1 and Stat3:Stat3 lysates” value is “appearance of an additional intermediate band representing Stat1:Stat3 heterodimers”. In experiment [2], the “transcriptional induction of the Stat3-dependent luciferase reporter pLucTKS3” value is reported as “significant suppression”. Further, the “induction of the Stat3-independent luciferase reporter pRLSRE” value in experiment [3] is “no effect”. For the same compound, on Stat3 [4], the “Stat3 activation in breast carcinoma cells (EMSA)” value is reported as “time-dependent reduction of Stat3 activation” and the “Stat3 activation in human non-small cell lung carcinoma cells (EMSA)” value is recorded as “time-dependent reduction of Stat3 activation”. In the experiment on NIH3T3/v-Src, the “growth in soft-agar suspension” value is “significantly suppressed”. In addition, the “Stat3 activation in Src-transformed fibroblasts (EMSA)” value at Stat3 [5] is on record as “time-dependent reduction of Stat3 activation”. In addition, the “increase in potency in inhibiting Stat3 DNA-binding activity compared to tripeptides PY*L or AY*L” value on Stat3 [6] (in vitro) was determined as 5 fold. In addition, the “effect on Stat3 DNA-binding activity in vitro (in words)” value at Stat3 [6] (nuclear extracts) is on record as “potent disrupters of active Stat3”.
